Laboratory results published in US11311010B2, “Lignin biomaterial as agricultural drug carrier” (Max-Planck-Gesellschaft zur Förderung der Wissenschaften …, priority 2016, dated 2022).
Values joined by “and” are separate entries in the source; they are usually repeats but may differ in a detail not shown here. Equal values may be shown once.

Legend:
[1] = system: Phaeoacremonium aleophilum; assay: In vitro test in 96-well plates (spore germination, optical density); type: cell-based; conditions: pos. control 50 μg, Pal, well row F
Procedure: (§1) The lignin particle-solutions were pipetted in various concentrations (1, 5 and 10 μg/mL) into the 96 wells. Several differing nanoparticles were tested (see FIGS. 10 and 12). Afterwards a spore suspension (in minimal medium) of Esca associated fungi, each fungus separately in three wells, was added to the lignin-particle solution. The final volume was 200 μl per well and 500 spores in those 200 μl (means 2,500 spores/mL). The 96-well plate was incubated at 26° C. for 48 h on a shaker with 120 rpm. The optical density was determined after 24 and 48 h using a lab-bench plate reader (BioRad) at a wavelength of 600 nm.
(§2) […] The optical density of the medium without spores was also measured.
(§3) The results of three replicates were afterwards combined to calculate the average value of all samples (see also the standard deviation in FIG. 10).
(§4) The numbers 1 to 10 and the letters A to H are the labeling of the 96-well plate as well as the grid of the test system. The Numbers 66 to 84 are explained as the tested Lignin-particle solutions, they differ in their composition and fungicide concentration (see also Table 2). The optical density is […] to the activity of the fungicide. […] Therefore higher values of the optical density stand for more sporulation and fungal growths and less biological activity of the lignin formulation (e.g., in A1, A2). A low optical density is characteristic for a high fungal toxicity and bioactivity (see in A5 and A6).

[2] = system: Phaeomoniella chlamydospora; assay: as above; type: cell-based; conditions: pos. control 50 μg, Pch, well row E
Procedure: as §1, §2, §3, §4

CP(=O)(O)CCC(N)C(=O)O (stereo not shown) [Glufosinat-Ammonium]
optical density measured at 600 nm ([1]; first plate block): 0.220 and 0.212 and 0.206 | optical density measured at 600 nm ([1]; second plate block): 0.228 and 0.219 and 0.204 | optical density measured at 600 nm ([2]; first plate block): 0.192 and 0.180 and 0.200 | optical density measured at 600 nm ([2]; second plate block): 0.201 and 0.192 and 0.203
